The values below come from US12358908B2, “Crystals, preparation method and application of a muscarinic receptor antagonist” (BEIJING SHOWBY PHARMACEUTICAL CO., LTD., priority 2020, dated 2025).

One series addresses T1, M2 receptor (Homo sapiens, UniProt P08172).
T1 sequence (P08172 1-466): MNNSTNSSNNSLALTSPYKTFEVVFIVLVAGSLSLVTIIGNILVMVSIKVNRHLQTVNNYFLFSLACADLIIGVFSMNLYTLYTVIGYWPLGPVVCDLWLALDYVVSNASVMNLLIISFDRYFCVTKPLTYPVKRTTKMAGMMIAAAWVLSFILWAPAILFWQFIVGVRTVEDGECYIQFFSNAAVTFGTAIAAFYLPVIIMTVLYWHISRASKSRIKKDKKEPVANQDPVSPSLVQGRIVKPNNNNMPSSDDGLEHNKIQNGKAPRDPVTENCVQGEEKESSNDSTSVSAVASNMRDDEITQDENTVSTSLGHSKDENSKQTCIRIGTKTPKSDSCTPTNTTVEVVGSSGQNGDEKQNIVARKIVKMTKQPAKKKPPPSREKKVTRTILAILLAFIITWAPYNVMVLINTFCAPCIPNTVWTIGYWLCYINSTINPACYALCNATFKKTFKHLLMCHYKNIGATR
The settings on record: selective effect on M receptor subtypes; cited from earlier work.

The next series concerns the target M3 receptor (Homo sapiens, UniProt P20309). The settings on record: selective effect on M receptor subtypes; cited from earlier work.
The nature of series [1]: Dynamic vapor sorption (DVS). The settings on record: at RH 80% humidity. Type of series: physicochemical. The method, then:
The dynamic vapor sorption and desorption analysis was performed on the IGA SORP (Hidenlsochema) instrument. The samples were tested in gradient mode. The test was performed in a humidity range of 0% to 90%, with an incremental humidity between each gradient of 10%. For each gradient, the shortest test time was 30 min, and the longest test time was 120 min. There is a time interval of 3 min for collecting data in the system.

Series [2] can be described thus: Stability test in 40° C./75% RH chamber with XRPD detection. The class given is physicochemical. The settings on record: bottle sealed with filter paper, after 3 days. The method, then:
The solid samples obtained were analyzed with an X-ray powder diffraction analyzer (Bruker D8 advance) equipped with a LynxEye detector. The samples was scanned with a 20 scanning angle from 3° to 40°, a scanning step of 0.02°, a tube voltage of 40 KV and a tube current of 40 mA. The sample pan used for sample measurement is a zero background sample pan.
The bottle was sealed with filter paper, and put into a 40° C./75% RH chamber for stability test. After 3 days, the sample was taken out for XRPD detection.
About 10 mg of Crystal B was weighed in an 8 mL sample bottle. The bottle was sealed with filter paper, and put into a 40° C./75% RH chamber for stability test. After 3 days, the sample was taken out for XRPD detection.

M3 receptor, sequence (P20309 whole entry): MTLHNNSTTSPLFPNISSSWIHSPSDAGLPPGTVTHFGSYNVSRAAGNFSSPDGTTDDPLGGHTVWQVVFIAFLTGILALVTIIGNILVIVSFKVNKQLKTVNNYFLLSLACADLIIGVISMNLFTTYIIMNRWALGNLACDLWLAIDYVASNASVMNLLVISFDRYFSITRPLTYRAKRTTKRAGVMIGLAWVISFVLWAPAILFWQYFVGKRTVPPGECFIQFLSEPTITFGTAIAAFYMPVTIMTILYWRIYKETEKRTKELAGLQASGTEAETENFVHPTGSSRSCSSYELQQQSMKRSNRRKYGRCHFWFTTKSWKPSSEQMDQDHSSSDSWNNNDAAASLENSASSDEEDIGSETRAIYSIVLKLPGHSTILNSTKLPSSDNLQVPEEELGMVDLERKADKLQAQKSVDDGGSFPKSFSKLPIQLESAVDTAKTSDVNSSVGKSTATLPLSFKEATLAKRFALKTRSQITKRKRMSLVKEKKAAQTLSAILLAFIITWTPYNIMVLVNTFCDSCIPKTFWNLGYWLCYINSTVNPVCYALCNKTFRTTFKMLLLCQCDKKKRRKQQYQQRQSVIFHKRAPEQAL

As to `O[C@@](CO[C@H]1C[N+]2(CCCOc3ccccc3)CCC1CC2)(c1ccccc1)C1CCCC1.[Br-]` [Compound I, (2R,3R)-3-[(2-cyclopentyl-2-hydroxy-2-phenyl)ethoxy]-1-(3-phenoxypropyl)-1-azabicyclo[2,2,2]octylonium bromide], the “effect on M2 receptor” value on M2 receptor is recorded as “weak effect”. The “effect on M3 receptor” value at M3 receptor is recorded as “strong effect”.

As to `O[C@@](CO[C@H]1C[N+]2(CCCOc3ccccc3)CCC1CC2)(c1ccccc1)C1CCCC1.[Br-]` [Crystal B], the hygroscopic weight increment in series [1] is 2.58%. Further, the “crystal form change by XRPD detection after stability test” value in series [2] was “did not change”.
